Literature values, collected in article PMC7366343 (Journal of the American Chemical Society, 2019).

Tests used:
hTDO = hTDO (Homo sapiens, UniProt P48775); conditions: read-out: reported IC50 for hTDO
Sequence of hTDO (P48775 whole entry): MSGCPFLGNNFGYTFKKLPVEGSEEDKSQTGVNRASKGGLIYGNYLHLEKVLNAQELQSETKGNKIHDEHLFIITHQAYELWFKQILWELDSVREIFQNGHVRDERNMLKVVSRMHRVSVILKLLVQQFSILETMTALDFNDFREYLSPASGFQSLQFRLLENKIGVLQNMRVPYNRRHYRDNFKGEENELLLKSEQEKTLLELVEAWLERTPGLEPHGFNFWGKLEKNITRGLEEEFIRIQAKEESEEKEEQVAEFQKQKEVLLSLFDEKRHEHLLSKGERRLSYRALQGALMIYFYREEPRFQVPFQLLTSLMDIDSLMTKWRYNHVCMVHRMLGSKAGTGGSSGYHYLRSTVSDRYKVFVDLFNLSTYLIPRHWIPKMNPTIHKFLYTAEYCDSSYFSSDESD

In the case of O=C1CC(c2c[nH]c3ccc(F)cc23)C(=O)N1 (centres unmarked) [IPD, 3-(5-Fluoro-1H-indol-3-yl)pyrrolidine-2,5-dione], the IC50 (hTDO) is listed as greater than 50 µM and the blood-brain barrier crossing is listed as “able to cross the blood-brain barrier”.
